The target in the assay is human Nav1.7 (Homo sapiens (Human), UniProt Q15858). The assay is described as follows: FLIPR membrane potential dye assay (alternative fluorescence assay). Type of assay: cell-based. The following applies: recombinant Nav1.7/HEK293 cells. How it is done:
In vitro assays were performed in a recombinant cell line expressing cDNA encoding the alpha subunit (Nav1.7, SCN9a, PN1, NE) of human Nav1.7 (Accession No. NM_002977). The cell line was provided by investigators at Yale University (Cummins et al, J. Neurosci. 18(23): 9607-9619 (1998)). For dominant selection of the Nav1.7-expressing clones, the expression plasmid co-expressed the neomycin resistance gene. The cell line was constructed in the human embryonic kidney cell line, HEK293, under the influence of the CMV […] promoter, and stable clones were selected using limiting dilution cloning and antibiotic selection using the neomycin analogue, G418. Recombinant beta and gamma subunits were not introduced into this cell line. Additional cell lines expressing recombinant Nav1.7 cloned from other species can also be used, alone or in combination with various beta subunits, gamma subunits or chaperones.
A fluorescence indicator that can be used in alternative fluorescence assays is the blue version membrane potential dye (MDS, Molecular Devices, Sunnyvale, Calif.), a dye that detects changes in molecules following a change in membrane potential. An increase in fluorescence is expected if agonist stimulation provokes a change in membrane potential. Cells expressing Nav1.7 or other sodium channels are incubated with the membrane potential dye 30-60 minutes before the fluorescence assay. In the case of the KCl pre-stimulation version of the assay, the dye and all other components are washed out immediately before the assay, and the dye is then replaced. In the version lacking KCl pre-stimulation, the dye remains on the cells and is not washed out or replaced. The dye is stored in the dark as a lyophilized powder, and then an aliquot dissolved in assay buffer to form a 20×-concentrated stock solution that can be used for several weeks.
In the fluorescence assays, two agonists were used in combination, namely 1) veratridine; and 2) the venom from the yellow scorpion, Leiurus quinquestriatus hebraeus. Veratridine is an alkaloid small molecule that facilitates the capture of channel openings by inhibiting inactivation, and the scorpion venom is a natural preparation that includes peptide toxins selective for different subsets of voltage-gated sodium channels. These scorpion toxins inhibit the fast inactivation of their cognate target channels. Stock solutions of the agonists were prepared to 40 mM in DMSO (veratridine) and 1 mg/mL in dH2O (scorpion venom), and then diluted to make a 4× or 2× stock (depending on the particular assay) in assay buffer, the final concentration being 100 μM (veratridine) and 10 μg/mL (scorpion venom). Both of the agonists were purchased from Sigma Aldrich, St. Louis, Mo.
Test compounds were dissolved in DMSO to yield 10 mM stock solutions. The stock solutions were further diluted using DMSO in 1:3 serial dilution steps with 10 points (10,000 μM, […], 370 μM, 123 μM, 41 μM, 14 μM, 4.6 μM, 1.5 μM and 0.5 μM). The stock solutions were further diluted in assay buffer (1:125) as 4× stock serial dilutions with a DMSO concentration of 0.8% (final [DMSO], in the assay, from the compounds component=0.2%), so that the compounds' final concentrations in the assay were 20 μM, 6.7 μM, 2.2 μM, 0.74 μM, 0.25 μM and 0.08 μM, 0.03 μM, 0.01 μM, 0.003 μM and 0.001 μM. If a particular test article appeared to be especially potent, then the concentration curve was adjusted, e.g., to 10-fold lower concentrations, in order to perform the dose-response in a more relevant concentration range. Compound dilutions were added during the dye-loading and pre-stimulation step, and then again during the fluorescence assay, early in the kinetic read.
The data were analyzed according to methods known to those skilled in the art or using the GraphPad® Prism Program, version 4.0 or higher (available from GraphPad Software, San Diego, Calif.) to determine the IC50 value for the test article. […]
Sequence of human Nav1.7 (Q15858 other isoform, or with tags, fused parts or gaps): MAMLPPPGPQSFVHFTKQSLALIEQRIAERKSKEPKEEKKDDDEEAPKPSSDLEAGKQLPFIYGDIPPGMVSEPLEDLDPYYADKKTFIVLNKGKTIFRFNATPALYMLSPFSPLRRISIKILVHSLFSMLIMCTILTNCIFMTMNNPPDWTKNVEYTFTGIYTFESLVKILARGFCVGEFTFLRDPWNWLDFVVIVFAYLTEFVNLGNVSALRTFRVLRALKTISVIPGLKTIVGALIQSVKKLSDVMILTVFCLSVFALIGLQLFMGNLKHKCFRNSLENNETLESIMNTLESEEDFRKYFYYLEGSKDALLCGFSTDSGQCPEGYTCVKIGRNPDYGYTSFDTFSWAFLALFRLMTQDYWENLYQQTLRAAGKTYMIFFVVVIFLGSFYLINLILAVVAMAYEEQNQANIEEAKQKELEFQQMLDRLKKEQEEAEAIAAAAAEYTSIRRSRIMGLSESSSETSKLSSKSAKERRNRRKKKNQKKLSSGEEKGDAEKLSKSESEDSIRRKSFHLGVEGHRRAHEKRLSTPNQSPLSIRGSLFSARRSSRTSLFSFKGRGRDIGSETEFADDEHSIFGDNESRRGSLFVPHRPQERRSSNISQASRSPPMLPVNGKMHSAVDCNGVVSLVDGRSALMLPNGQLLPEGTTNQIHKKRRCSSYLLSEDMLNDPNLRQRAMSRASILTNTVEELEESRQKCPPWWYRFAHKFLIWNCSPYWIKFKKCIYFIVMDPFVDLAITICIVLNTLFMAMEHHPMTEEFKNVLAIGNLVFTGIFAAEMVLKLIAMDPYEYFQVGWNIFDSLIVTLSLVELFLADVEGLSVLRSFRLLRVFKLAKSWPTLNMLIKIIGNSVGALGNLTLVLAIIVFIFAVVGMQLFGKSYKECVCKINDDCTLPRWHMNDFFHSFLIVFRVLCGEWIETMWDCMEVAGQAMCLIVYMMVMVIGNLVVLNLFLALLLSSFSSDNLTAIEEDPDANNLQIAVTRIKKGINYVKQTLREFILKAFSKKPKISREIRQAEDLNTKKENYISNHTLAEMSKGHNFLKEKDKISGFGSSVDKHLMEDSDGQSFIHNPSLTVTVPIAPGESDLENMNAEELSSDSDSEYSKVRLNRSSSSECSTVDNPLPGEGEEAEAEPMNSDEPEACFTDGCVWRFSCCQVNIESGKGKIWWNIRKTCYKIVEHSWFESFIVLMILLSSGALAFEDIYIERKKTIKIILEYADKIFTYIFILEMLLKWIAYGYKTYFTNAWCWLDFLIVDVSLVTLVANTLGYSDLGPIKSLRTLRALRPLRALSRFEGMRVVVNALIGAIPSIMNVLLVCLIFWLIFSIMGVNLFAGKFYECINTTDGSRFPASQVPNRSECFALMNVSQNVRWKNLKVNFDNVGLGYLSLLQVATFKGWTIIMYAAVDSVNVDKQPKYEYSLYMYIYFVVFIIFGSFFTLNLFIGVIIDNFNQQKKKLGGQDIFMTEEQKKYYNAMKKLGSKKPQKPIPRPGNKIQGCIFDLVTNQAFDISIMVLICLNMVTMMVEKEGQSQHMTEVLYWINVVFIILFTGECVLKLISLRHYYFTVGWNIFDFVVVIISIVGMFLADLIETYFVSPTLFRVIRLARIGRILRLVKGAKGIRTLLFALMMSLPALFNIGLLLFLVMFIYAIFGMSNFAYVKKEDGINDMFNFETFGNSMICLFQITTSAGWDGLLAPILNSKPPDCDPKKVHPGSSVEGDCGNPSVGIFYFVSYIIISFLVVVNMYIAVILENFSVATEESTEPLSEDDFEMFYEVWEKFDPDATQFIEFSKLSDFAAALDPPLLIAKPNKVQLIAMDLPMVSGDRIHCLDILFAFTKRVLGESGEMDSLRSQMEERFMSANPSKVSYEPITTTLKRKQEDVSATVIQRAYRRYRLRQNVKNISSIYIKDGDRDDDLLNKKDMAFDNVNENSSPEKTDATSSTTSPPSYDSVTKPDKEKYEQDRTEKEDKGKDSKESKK
On to `CCN(CCN(C)C)C(=O)c1cc(C(F)(F)F)ccc1Oc1ccc(-c2cccc([C@H](O)CO)n2)cc1` [compound 172, (S)-2-(4-(6-(1,2-dihydroxyethyl)pyridin-2-yl)phenoxy)-N-(2-(dimethyl-amino)ethyl)-N-ethyl-5-(trifluoromethyl)benzamide], for which the IC50 is 7.97 ± 1.19 µM.

As to `O=C(NC[C@@H](O)CO)c1cc(C(F)(F)F)ccc1Oc1ccc(-c2cccc([C@H](O)CO)n2)cc1` [compound 167, 2-(4-(6-((S)-1,2-dihydroxyethyl)pyridin-2-yl)phenoxy)-N-((R)-2,3-dihydroxypropyl)-5-(trifluoromethyl)benzamide], the IC50 was over 20 µM.

Turning to `CN(C)c1ncc(-c2cc(C(F)(F)F)ccc2Oc2ccc(-c3nc(N[C@H]4CCNC4=O)cc(C(N)=O)n3)cc2)cn1` [compound 128, (S)-2-(4-(2-(2-(dimethylamino)pyrimidin-5-yl)-4-(trifluoromethyl)phenoxy)phenyl)-6-((2-oxopyrrolidin-3-yl)amino)pyrimidine-4-carboxamide], the IC50 turned out to be 0.684 ± 0.034 µM.

In the case of `Cn1nccc1-c1cc(Cl)ccc1Oc1ccc(-c2nc(N[C@H]3CCNC3=O)cc(C(N)=O)n2)cc1` [compound 141, (S)-2-(4-(4-chloro-2-(1-methyl-1H-pyrazol-5-yl)phenoxy)phenyl)-6-((2-oxopyrrolidin-3-yl)amino)-pyrimidine-4-carboxamide], the IC50 was 0.45 ± 0.053 µM.

With `O=C(c1cc(C(F)(F)F)ccc1Oc1ccc(-c2cccc([C@H](O)CO)n2)cc1)N1CC[C@H](O)C1` [compound 170, (2-(4-(6-((S)-1,2-dihydroxyethyl)pyridin-2-yl)phenoxy)-5-(trifluoromethyl)phenyl)((S)-3-hydroxypyrrolidin-1-yl)methanone], the IC50 was over 20 µM.

Turning to `NC(=O)c1cc(N[C@H]2CCNC2=O)nc(-c2ccc(Oc3ccc(Cl)cc3-c3ccnn3C3CNC3)cc2)n1` [compound 137, (S)-2-(4-(2-(1-(azetidin-3-yl)-1H-pyrazol-5-yl)-4-chlorophenoxy)phenyl)-6-((2-oxopyrrolidin-3-yl)amino)pyrimidine-4-carboxamide], the IC50 is over 20 µM.

Regarding `NC(=O)c1cc(CCn2ccnc2)nc(-c2ccc(Oc3ccc(C(F)(F)F)cc3CN3CCOCC3)cc2)n1` [compound 127, 6-(2-(1H-imidazol-1-yl)ethyl)-2-(4-(2-(morpholinomethyl)-4-(trifluoromethyl)phenoxy)phenyl) pyrimidine-4-carboxamide], the IC50 was found to be 0.486 ± 0.032 µM.

For the molecule `Cn1nccc1-c1cc(C(F)(F)F)ccc1Oc1ccc(-c2cc([C@H](O)CO)cc(C(N)=O)n2)cc1` [compound 135, (S)-4-(1,2-dihydroxythyl)-6-(4-(2-(1-methyl-1H-pyrazol-5-yl)-4-(trifluoromethyl)phenoxy)phenyl) picolinamide], the IC50 was found to be 0.294 ± 0.054 µM.

Regarding `CCN(CC)Cc1cc(C(F)(F)F)ccc1Oc1ccc(-c2nc(C(N)=O)cc(C(=O)O)n2)cc1` [compound 131, 6-carbamoyl-2-(4-(2-((diethylamino)methyl)-4-(trifluoromethyl)phenoxy)phenyl) pyrimidine-4-carboxylic acid], the half-maximal inhibitory concentration (IC50) was over 20 µM.

Turning to `Cn1nccc1-c1cc(C(F)(F)F)ccc1Oc1ccc(-c2nc(C(N)=O)cc([C@H](O)CO)n2)cc1` [compound 122, (S)-6-(1,2-dihydroxyethyl)-2-(4-(2-(1-methyl-1H-pyrazol-5-yl)-4-(trifluoromethyl)phenoxy)phenyl) pyrimidine-4-carboxamide], the half-inhibitory concentration (IC50) amounted to 0.079 ± 0.015 µM.

As for `NC(=O)c1cc(C(=O)O)nc(-c2ccc(Oc3ccc(C(F)(F)F)cc3CN3CCOCC3)cc2)n1` [compound 132, 6-carbamoyl-2-(4-(2-(morpholinomethyl)-4-(trifluoromethyl)phenoxy)phenyl) pyrimidine-4-carboxylic acid], the IC50 was found to be 9.8 ± 0.365 µM.

As to `CCN(CC)Cc1cc(C(F)(F)F)ccc1Oc1ccc(-c2nc(C(N)=O)cc([C@@H](O)CO)n2)cc1` [compound 133, (R)-2-(4-(2-((diethylamino)methyl)-4-(trifluoromethyl)phenoxy)phenyl)-6-(1,2-dihydroxyethyl)pyrimidine-4-carboxamide], the concentration for half-maximal inhibition (IC50) was found to be 0.699 ± 0.045 µM.

On to `Cn1nccc1-c1cc(C(F)(F)F)ccc1Oc1ccc(-c2cccc(C(N)=O)n2)cc1` [compound 123, 6-(4-(2-(1-methyl-1H-pyrazol-5-yl)-4-(trifluoromethyl)phenoxy)phenyl) picolinamide], for which the IC50 was determined as 0.149 ± 0.056 µM.

Consider `C[C@H](Nc1cc(C(N)=O)nc(-c2ccc(Oc3ccccc3-c3ccnn3C)cc2)n1)C(N)=O` [compound 140, (S)-6-((1-amino-1-oxopropan-2-yl)amino)-2-(4-(2-(1-methyl-1H-pyrazol-5-yl)phenoxy)phenyl)-pyrimidine-4-carboxamide], for which the IC50 was 4.23 ± 0.479 µM.

Regarding `CCN(CC)C(=O)c1cc(C(F)(F)F)ccc1Oc1ccc(-c2cccc([C@H](O)CO)n2)cc1` [compound 168, (S)-2-(4-(6-(1,2-dihydroxyethyl)pyridin-2-yl)phenoxy)-N,N-diethyl-5-(trifluoromethyl)benzamide], the IC50 was 0.519 ± 0.083 µM.

With `C[C@H](Nc1cc(C(N)=O)nc(-c2ccc(Oc3ccccc3-c3ccnn3C)cc2)n1)C(N)=O` [compound 139, (S)-6-((1-amino-1-oxopropan-2-yl)amino)-2-(4-(2-(1-methyl-1H-pyrazol-5-yl)phenoxy)phenyl)-pyrimidine-4-carboxamide], the IC50 was 10 to 20 µM.

`CCN(CC)Cc1cc(C(F)(F)F)ccc1Oc1ccc(-c2nc(C(N)=O)cc([C@H](O)CO)n2)cc1` [compound 130, (S)-2-(4-(2-((diethylamino)methyl)-4-(trifluoromethyl)phenoxy)phenyl)-6-(1,2-dihydroxyethyl)pyrimidine-4-carboxamide]: the IC50 amounted to 1.28 ± 0.135 µM.

As to `CCN(CC)Cc1cc(C(F)(F)F)ccc1Oc1ccc(-c2nc(CCOC(C)=O)cc(C(N)=O)n2)cc1` [compound 124, 2-(6-carbmoyl-2-(4-(2-((diethylamino)methyl)-4-(trifluoromethyl)phenoxy)phenyl)pyrimidin-4-yl)ethyl acetate], the IC50 came out at 0.367 ± 0.028 µM.

Regarding `C[C@H](Nc1cc(C(N)=O)nc(-c2ccc(Oc3ccc(C(F)(F)F)cc3-c3cnc(N(C)C)cn3)cc2)n1)C(N)=O` [compound 134, (S)-6-((1-amino-1-oxopropan-2-yl)amino)-2-(4-(2-(5-(dimethylamino)pyrazin-2-yl)-4-(trifluoromethyl)phenoxy)phenyl) pyrimidine-4-carboxamide], the IC50 was 0.393 ± 0.048 µM.

In the case of `Cn1nccc1-c1cc(C(F)(F)F)ccc1Oc1ccc(-c2nccc(C(N)=O)n2)cc1` [compound 125, 2-(4-(2-(1-methyl-1H-pyrazol-5-yl)-4-(trifluoromethyl)phenoxy)phenyl) pyrimidine-4-carboxamide], the IC50 amounted to 0.311 ± 0.006 µM.

For the molecule `O=C(Nc1nccs1)c1cc(C(F)(F)F)ccc1Oc1ccc(-c2cccc([C@H](O)CO)n2)cc1` [compound 175, (S)-2-(4-(6-(1,2-dihydroxyethyl)pyridin-2-yl)phenoxy)-N-(thiazol-2-yl)-5-(trifluoromethyl)benzamide], the IC50 came out at 1.31 ± 0.054 µM.

Turning to `O=C(Nc1nncs1)c1cc(C(F)(F)F)ccc1Oc1ccc(-c2cccc([C@H](O)CO)n2)cc1` [compound 174, (S)-2-(4-(6-(1,2-dihydroxyethyl)pyridin-2-yl)phenoxy)-N-(1,3,4-thiadiazol-2-yl)-5-(trifluoromethyl)-benzamide], the IC50 came out at 3.61 ± 0.229 µM.

With `NC(=O)c1cc([C@H](O)CO)cc(-c2ccc(Oc3ccc(Cl)cc3-c3ccnn3C3CNC3)cc2)n1` [compound 136, (S)-6-(4-(2-(1-(azetidin-3-yl)-1H-pyrazol-5-yl)-4-chlorophenoxy)phenyl)-4-(1,2-dihydroxyethyl)picolinamide], the IC50 is over 20 µM.

As a reminder, the IC50 is the concentration at which inhibition is half-maximal.

The values are drawn from patent US10005768B2, “Carboxamide derivatives and use thereof” (Purdue Pharma L.P., priority 2013, dated 2018).
